Source: patent publication US20060069132A1, “Azolecarboxamide herbicides” (priority 2004, published 2006)
Where two headings read alike, the source gives them in different places.

How the values were obtained:
rice = test: Test C flooded paddy test; format: in vivo, Oryza sativa; conditions: for plant injury at 62 g/ha / plant injury at 125 g/ha / plant injury at 250 g/ha / plant injury at 500 g/ha: Oryza sativa; for plant injury at 62 g/ha / plant injury at 125 g/ha / plant injury at 250 g/ha: read-out: Rice plant response rating; for plant injury at 500 g/ha / Plant response rating, Rice: 500 g ai/ha, visual rating after 12 to 14 days; for plant injury at 500 g/ha: read-out: Plant response rating, Rice
Outline: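 Postemergence sprays applied to plants 2 to 18 cm tall (1- to 4-leaf stage); paddy species grown to 2-leaf stage under flooding. After 12 to 14 days in greenhouse, visual rating versus untreated controls on 0–100 scale (0 no effect, 100 complete control).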

ducksalad = test: Test C flooded paddy test; format: in vivo, Heteranthera limosa; conditions: for pest or weed control at 62 g/ha / pest or weed control at 125 g/ha / pest or weed control at 250 g/ha / pest or weed control at 500 g/ha: Heteranthera limosa; for pest or weed control at 62 g/ha / pest or weed control at 125 g/ha / pest or weed control at 250 g/ha: read-out: Ducksalad plant response rating; for pest or weed control at 500 g/ha / Plant response rating, Ducksalad: 500 g ai/ha, visual rating after 12 to 14 days; for pest or weed control at 500 g/ha: read-out: Plant response rating, Ducksalad
corn = test: Test B pre-/postemergence herbicide test; format: in vivo, Zea mays; conditions: for plant injury at 125 g/ha / plant injury at 500 g/ha / Corn plant response rating (crop injury, 0 = no effect, 100 = complete kill) at 500 g/ha / Corn plant response rating (crop injury, 0 = no effect, 100 = complete kill) at 125 g/ha: Zea mays; for Plant response rating (0 to 100 scale), Corn / Corn plant response rating (crop injury, 0 = no effect, 100 = complete kill) at 125 g/ha: 0 is no effect; for Corn plant response rating (crop injury, 0 = no effect, 100 = complete kill) at 125 g/ha: 0 to 100 scale
Outline: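 Pre: seeds sown, then sprayed. Post: 1–4-leaf plants (2–18 cm) sprayed at the same time. Paddy: flooded, treated at 2-leaf stage. Formulation: non-phytotoxic solvent with surfactant. Greenhouse 13–15 days; visual 0–100 score relative to controls.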

blackgrass = test: Test B postemergence herbicide test; format: in vivo, Alopecurus myosuroides; conditions: for pest or weed control at 125 g/ha / pest or weed control at 500 g/ha: Alopecurus myosuroides, post-emergence, 336 h, read-out: Blackgrass plant response rating
Outline: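 Paddy species grown to the 2-leaf stage under flooding; blackgrass sprayed postemergence at 2–18 cm (1- to 4-leaf stage). Plants kept in a greenhouse for 13 to 15 days, then visually rated against controls on 0 (no effect) to 100 (complete control).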

redroot pigweed = test: Test A pre-/postemergence herbicide test; format: in vivo, Amaranthus retroflexus; conditions: Amaranthus retroflexus, 240 h; for pest or weed control at 500 g/ha: 500 g ai/ha; for pest or weed control at 2000 g/ha: 2000 g ai/ha
Outline: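 Sandy loam soil given preemergence directed spray; plants at 2 to 10 cm, one- to two-leaf stage, sprayed to runoff postemergence, compounds in non-phytotoxic solvent with surfactant. Injury rated visually versus untreated controls after about ten greenhouse days, 0 (no effect) to 100 (complete control); dash means not tested.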

[1] = 62 g ai/ha, scale 0 to 100 (0 no effect, 100 complete control)
[2] = 125 g ai/ha, scale 0 to 100 (0 no effect, 100 complete control)
[3] = 250 g ai/ha, scale of 0 to 100, 0 is no effect, 100 is complete control
[4] = scale 0 to 100 (0 no effect, 100 complete control)
[5] = post-emergence, postemergence, 125 g ai/ha, visual rating, scale 0 (no effect) to 100 (complete control), read-out: Corn plant response rating
[6] = post-emergence, postemergence, 500 g ai/ha, scale 0 to 100, 0 is no effect, 100 is complete control, read-out: Corn plant response rating
[7] = pre-emergence, 125 g ai/ha, 0 = no effect, 100 = complete control, read-out: Corn plant response rating (0 to 100 scale)
[8] = pre-emergence, 500 g ai/ha, visual rating, 0 = no effect, 100 = complete control
[9] = postemergence, 125 g ai/ha, visual rating, scale 0 (no effect) to 100 (complete control)
[10] = postemergence, 500 g ai/ha, visual rating, scale 0 (no effect) to 100 (complete control)
[11] = post-emergence, postemergence, 500 g ai/ha, visual rating, scale 0 (no effect) to 100 (complete control), read-out: Corn plant response rating
[12] = 125 g ai/ha, 100 is complete control, preemergence
[13] = Postemergence, 500 g ai/ha, scale 0 (no effect) to 100 (complete control)
[14] = postemergence, 125 g ai/ha, scale 0 to 100
[15] = post-emergence, Postemergence, 0 to 100 scale, 0 no effect, 100 complete control, read-out: Pigweed plant response rating
[16] = post-emergence, Postemergence, 0 to 100 scale, 0 no effect, 100 complete control, read-out: Plant response rating, Pigweed
[17] = pre-emergence, Preemergence, visual rating, 0 to 100 scale (0 no effect, 100 complete control), read-out: Pigweed plant response rating
[18] = pre-emergence, preemergence, visual injury, 0 to 100 scale (0 no effect, 100 complete control), read-out: Pigweed plant response rating
[19] = pre-emergence, 500 g ai/ha, visual rating 0-100, 0 no effect, 100 complete control
[20] = pre-emergence, preemergence, 125 g ai/ha, 100 is complete control

Structure (SMILES): CCNC(=O)c1cc(NC(=O)c2cn(C(C)(C)C)nc2CC)ccc1F [Compound 241, 1-(1,1-dimethylethyl)-3-ethyl-N-[3-[(ethylamino)carbonyl]-4-fluorophenyl]-1H-pyrazole-4-carboxamide]
- plant injury at 62 g/ha (rice; [1]): 0%
- plant injury at 125 g/ha (rice; [2]): 0%
- plant injury at 250 g/ha (rice; [3]): 30%
- plant injury at 500 g/ha (rice; [4]): 65%
- pest or weed control at 62 g/ha (ducksalad; [1]): 0%
- pest or weed control at 125 g/ha (ducksalad; [2]): 0%
- pest or weed control at 250 g/ha (ducksalad; [3]): 0%
- pest or weed control at 500 g/ha (ducksalad; [4]): 15%
- plant injury at 125 g/ha (corn; [5]): 0%
- plant injury at 500 g/ha (corn; [6]): 10%
- plant injury at 125 g/ha (corn; [7]): 0%
- Corn plant response rating (crop injury, 0 = no effect, 100 = complete kill) at 500 g/ha (corn; [8]): 30%
- pest or weed control at 125 g/ha (blackgrass; [9]): 0%
- pest or weed control at 500 g/ha (blackgrass; [10]): 10%

Structure (SMILES): CCn1nc(C(C)(C)C)cc1C(=O)Nc1ccc(F)c(C(=O)N(C)C)c1 [Compound 236, N-[3-[(dimethylamino)carbonyl]-4-fluorophenyl]-3-(1,1-dimethylethyl)-1-ethyl-1H-pyrazole-5-carboxamide]
- plant injury at 62 g/ha (rice; [1]): 0%
- plant injury at 125 g/ha (rice; [2]): 30%
- plant injury at 250 g/ha (rice; [3]): 60%
- plant injury at 500 g/ha (rice; [4]): 70%
- pest or weed control at 62 g/ha (ducksalad; [1]): 0%
- pest or weed control at 125 g/ha (ducksalad; [2]): 40%
- pest or weed control at 250 g/ha (ducksalad; [3]): 55%
- pest or weed control at 500 g/ha (ducksalad; [4]): 80%
- plant injury at 125 g/ha (corn; [5]): 20%
- plant injury at 500 g/ha (corn; [11]): 40%
- plant injury at 125 g/ha (corn; [7]): 0%
- Corn plant response rating (crop injury, 0 = no effect, 100 = complete kill) at 500 g/ha (corn; [8]): 10%
- pest or weed control at 125 g/ha (blackgrass; [9]): 0%
- pest or weed control at 500 g/ha (blackgrass; [10]): 10%

Structure (SMILES): C=CCOc1cccc(NC(=O)c2cc(C(C)(C)C)nn2CC)c1 [Compound 412]
- Rice plant response rating (rice; 62 g ai/ha, scale 0 to 100): 15
- Rice plant response rating (rice; [2]): 20
- Rice plant response rating (rice; [3]): 20
- Plant response rating, Rice (rice; [4]): 50
- Ducksalad plant response rating (ducksalad; 62 g ai/ha, scale 0 to 100): 0
- Ducksalad plant response rating (ducksalad; [2]): 30
- Ducksalad plant response rating (ducksalad; [3]): 60
- Plant response rating, Ducksalad (ducksalad; [4]): 90
- Plant response rating (0 to 100 scale), Corn (corn; [12]): 0
- Corn plant response rating (corn; [13]): 0
- Corn plant response rating (corn; [14]): 0
- Blackgrass plant response rating (blackgrass; [13]): 40
- Blackgrass plant response rating (blackgrass; [14]): 40

Structure (SMILES): CCn1nc(C(C)(C)C)cc1C(=O)Nc1cccc(C(=O)OC)n1 [Compound 143, methyl 6-[[[3-(1,1-dimethylethyl)-1-ethyl-1H-pyrazol-5-yl]carbonyl]amino]-2-pyridinecarboxylate]
- pest or weed control at 500 g/ha (redroot pigweed; [15]): 20%
- pest or weed control at 2000 g/ha (redroot pigweed; [16]): 35%
- pest or weed control at 2000 g/ha (redroot pigweed; [17]): 0%
- pest or weed control at 500 g/ha (redroot pigweed; [18]): 0%
- plant injury at 125 g/ha (corn; [5]): 0%
- plant injury at 500 g/ha (corn; [11]): 10%
- Corn plant response rating (crop injury, 0 = no effect, 100 = complete kill) at 500 g/ha (corn; [19]): 0%
- Corn plant response rating (crop injury, 0 = no effect, 100 = complete kill) at 125 g/ha (corn; [20]): 0%
- pest or weed control at 125 g/ha (blackgrass; [9]): 0%
- pest or weed control at 500 g/ha (blackgrass; [10]): 0%

Structure (SMILES): C#CCOc1cccc(NC(=O)c2cc(C(C)(C)C)nn2CC)c1 [Compound 411]
- Rice plant response rating (rice; 62 g ai/ha, scale 0 to 100): 0
- Rice plant response rating (rice; [2]): 25
- Rice plant response rating (rice; [3]): 35
- Plant response rating, Rice (rice; [4]): 35
- Ducksalad plant response rating (ducksalad; 62 g ai/ha, scale 0 to 100): 25
- Ducksalad plant response rating (ducksalad; [2]): 50
- Ducksalad plant response rating (ducksalad; [3]): 70
- Plant response rating, Ducksalad (ducksalad; [4]): 80
- Plant response rating (0 to 100 scale), Corn (corn; [12]): 0
- Corn plant response rating (corn; [13]): 10
- Corn plant response rating (corn; [14]): 10
- Blackgrass plant response rating (blackgrass; [13]): 60
- Blackgrass plant response rating (blackgrass; [14]): 40

Structure (SMILES): CCOC(=O)c1ccc(F)c(NC(=O)C2CC(C(C)(C)C)=NN2CC)c1 (stereo not drawn) [Compound 267, ethyl 3-[[[3-(1,1-dimethylethyl)-1-ethyl-4,5-dihydro-1H-pyrazol-5-yl]carbonyl]amino]-4-fluorobenzoate]
- pest or weed control at 500 g/ha (redroot pigweed; [15]): 40%
- pest or weed control at 2000 g/ha (redroot pigweed; [16]): 60%
- pest or weed control at 2000 g/ha (redroot pigweed; [17]): 80%
- pest or weed control at 500 g/ha (redroot pigweed; [18]): 5%
- plant injury at 125 g/ha (corn; [5]): 20%
- plant injury at 500 g/ha (corn; [6]): 40%
- plant injury at 125 g/ha (corn; [7]): 0%
- Corn plant response rating (crop injury, 0 = no effect, 100 = complete kill) at 500 g/ha (corn; [8]): 20%
- pest or weed control at 125 g/ha (blackgrass; [9]): 20%
- pest or weed control at 500 g/ha (blackgrass; [10]): 40%

Structure (SMILES): CCn1nc(C(C)(C)C)cc1C(=O)Nc1cc(C(=O)OC(C)C)c(F)cc1F [Compound 248]
- Corn plant response rating (0 to 100 scale) (corn; 125 g ai/ha, 0 = no effect, 100 = complete control, preemergence): 0
- Plant response rating, Corn (corn; 500 g ai/ha, visual rating, 0 = no effect, 100 = complete control, preemergence): 0
- Corn plant response rating (corn; [9]): 20
- Corn plant response rating (corn; postemergence, 500 g ai/ha, scale 0 to 100, 0 is no effect, 100 is complete control): 30
- Blackgrass plant response rating (blackgrass; [9]): 20
- Blackgrass plant response rating (blackgrass; [10]): 30

Structure (SMILES): CCn1nc(C(C)(C)C)cc1C(=O)Nc1cc(C(=O)OC)ccn1 [Compound 151, methyl 2-[[[3-(1,1-dimethylethyl)-1-ethyl-1H-pyrazol-5-yl]carbonyl]amino]-4-pyridinecarboxylate]
- pest or weed control at 500 g/ha (redroot pigweed; [15]): 35%
- pest or weed control at 2000 g/ha (redroot pigweed; [16]): 70%
- pest or weed control at 2000 g/ha (redroot pigweed; [17]): 0%
- pest or weed control at 500 g/ha (redroot pigweed; [18]): 0%
- plant injury at 125 g/ha (corn; [5]): 10%
- plant injury at 500 g/ha (corn; [11]): 10%
- Corn plant response rating (crop injury, 0 = no effect, 100 = complete kill) at 500 g/ha (corn; [19]): 0%
- Corn plant response rating (crop injury, 0 = no effect, 100 = complete kill) at 125 g/ha (corn; [20]): 0%
- pest or weed control at 125 g/ha (blackgrass; [9]): 10%
- pest or weed control at 500 g/ha (blackgrass; [10]): 30%
